In one test the target is T1, human μ opiate receptor (Homo sapiens, UniProt P35372).
T1 construct: purchased PerkinElmer Life Sciences, Zaventem, Belgium RB-HOM; host or cells: CHO-K1 cells (membrane preparation)
The experiment in a line: Affinity for the human μ opiate receptor ([3H]-naloxone displacement, CHO-K1 receptor membrane preparation, SPA). The format is binding. The conditions noted are these: for μ (binding on the μ opioid receptor, % inhibition): test concentration of 1 μM; for inhibition at 1 µM: 1.5 h, Table 2, test concentration 1 μM, read-out: μ receptor. The essentials: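 Displacement of 1 nmol/l [3H]-naloxone measured by SPA counting after 90 min at room temperature, using human μ receptor CHO-K1 membrane preparation in Tris-HCl buffer with 0.06% BSA. Test substances at 1 μmol/l give % inhibition; dilution series yield IC50, then Ki (Cheng-Prusoff); non-specific binding with 100 μmol/l naloxone.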

Test [1] has as its target T2, serotonin (5-HT) reuptake (Rattus norvegicus, UniProt P31652).
T2 construct: synaptosomes are freshly isolated from areas of the rat brain; from tissue; host or cells: rat brain synaptosomes (P2 fraction)
The experiment in a line: Inhibition of serotonin (5HT) reuptake in synaptosomes from rat brain. To be noted: for 5-HT (inhibition of reuptake of serotonin, % inhibition): test concentration of 10 μM. Type of test: biochemical. The gist of the method: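 Compounds screened at 10 μM and reported as percent inhibition of serotonin uptake. Uptake measured in a freshly prepared P2 synaptosomal fraction from rat brain.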

T2 sequence (P31652 whole entry): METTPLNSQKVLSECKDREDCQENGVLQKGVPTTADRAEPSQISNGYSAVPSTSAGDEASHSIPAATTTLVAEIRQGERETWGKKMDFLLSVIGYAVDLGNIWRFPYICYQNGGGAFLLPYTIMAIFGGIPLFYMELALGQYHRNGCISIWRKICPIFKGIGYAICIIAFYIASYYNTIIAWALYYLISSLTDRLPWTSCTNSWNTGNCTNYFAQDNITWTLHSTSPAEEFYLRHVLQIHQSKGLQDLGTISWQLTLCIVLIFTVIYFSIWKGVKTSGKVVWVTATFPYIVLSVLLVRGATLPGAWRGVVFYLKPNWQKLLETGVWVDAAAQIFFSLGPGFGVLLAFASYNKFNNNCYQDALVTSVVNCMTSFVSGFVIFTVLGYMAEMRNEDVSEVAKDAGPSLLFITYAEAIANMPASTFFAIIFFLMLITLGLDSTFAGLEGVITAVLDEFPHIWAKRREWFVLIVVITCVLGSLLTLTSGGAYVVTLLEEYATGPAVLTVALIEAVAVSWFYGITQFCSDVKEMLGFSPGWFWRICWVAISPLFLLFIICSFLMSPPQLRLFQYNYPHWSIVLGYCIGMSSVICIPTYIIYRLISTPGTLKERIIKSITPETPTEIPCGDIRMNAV
T1 sequence (P35372 whole entry): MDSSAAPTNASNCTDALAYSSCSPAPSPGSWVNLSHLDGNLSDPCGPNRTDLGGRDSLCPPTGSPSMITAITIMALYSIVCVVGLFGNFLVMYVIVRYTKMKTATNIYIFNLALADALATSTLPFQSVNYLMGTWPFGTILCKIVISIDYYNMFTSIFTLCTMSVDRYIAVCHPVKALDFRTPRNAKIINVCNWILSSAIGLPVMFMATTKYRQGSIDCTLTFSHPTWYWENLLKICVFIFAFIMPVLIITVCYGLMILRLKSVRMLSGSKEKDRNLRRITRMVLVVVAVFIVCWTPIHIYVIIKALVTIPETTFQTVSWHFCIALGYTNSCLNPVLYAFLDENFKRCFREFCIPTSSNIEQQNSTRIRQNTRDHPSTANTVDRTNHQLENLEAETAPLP

As to `CN(C)C(c1cccc(F)c1)C1CCC(CNC(=O)COCCN(C)S(=O)(=O)c2ccc(F)cc2)CC1` (stereo not shown) [Example 229], the “μ (binding on the μ opioid receptor, % inhibition)” value on human μ opiate receptor was determined as 79%. Besides, in test [1], the “5-HT (inhibition of reuptake of serotonin, % inhibition)” value was found to be 89%.
Turning to `COc1ccc(S(=O)(=O)N(C)CCOCC(=O)NC2CCC(C(c3cccc(F)c3)N(C)C)CC2)cc1` (stereo not shown) [Example 250], the “μ (binding on the μ opioid receptor, % inhibition)” value at human μ opiate receptor was 70%. Besides, the “5-HT (inhibition of reuptake of serotonin, % inhibition)” value in test [1] is recorded as 84%.
The matching figures for `CN(C)C(c1ccc(Cl)cc1)C1CCC(CNC(=O)COC2CCCCC2N(C)S(=O)(=O)c2ccc(Cl)c(Cl)c2)CC1` (stereo not shown) [Example 269]: 74% and 87%.
As for `Cc1ccc(S(=O)(=O)N(C)CCOCC(=O)NCCC2CCC(C(c3cccc(F)c3)N(C)C)CC2)cc1` (stereo not shown) [Example 240], the “μ (binding on the μ opioid receptor, % inhibition)” value at human μ opiate receptor came out at 74%. Also, the “5-HT (inhibition of reuptake of serotonin, % inhibition)” value in test [1] is on record as 87%.
Consider `CN(C)C(c1ccc(Cl)cc1)C1CCC(CNC(=O)COCCN(C)S(=O)(=O)c2ccc(F)cc2)CC1` (stereo not shown) [Example 263], for which the “μ (binding on the μ opioid receptor, % inhibition)” value at human μ opiate receptor is 72%. In addition, the “5-HT (inhibition of reuptake of serotonin, % inhibition)” value in test [1] worked out at 102%.
With `CN(C)C(c1cccc(F)c1)C1CCC(NC(=O)COCCN(C)S(=O)(=O)c2ccc(F)cc2)CC1` (stereo not shown) [Example 205], at human μ opiate receptor, the “μ (binding on the μ opioid receptor, % inhibition)” value stood at 76%. Besides, in test [1], the “5-HT (inhibition of reuptake of serotonin, % inhibition)” value was 84%.
Consider `CN(C)C(c1cccc(F)c1)C1CCC(CNC(=O)COCC2CCCN(S(=O)(=O)c3ccccc3)C2)CC1` (stereo not shown) [Example 220], for which, at human μ opiate receptor, the “μ (binding on the μ opioid receptor, % inhibition)” value is reported as 73%. Besides, the “5-HT (inhibition of reuptake of serotonin, % inhibition)” value in test [1] is given as 95%.
Take `COc1cc(C)c(S(=O)(=O)N2CCC(OCC(=O)NCCC3CCC(C(c4cccc(F)c4)N(C)C)CC3)C2)c(C)c1C` (stereo not shown) [Example 253]: the “μ (binding on the μ opioid receptor, % inhibition)” value at human μ opiate receptor is on record as 76%. In addition, the “5-HT (inhibition of reuptake of serotonin, % inhibition)” value in test [1] was 96%.
Turning to `CN(C)C(c1ccccc1)C1CCC(NC(=O)COCC2CCCN2S(=O)(=O)c2c(Cl)cc(Cl)cc2Cl)CC1` (stereo not shown) [Example 611, N-[4-(Dimethylaminophenylmethyl)-cyclohexyl]-2-[1-(2,4,6-trichlorobenzenesulfonyl)-pyrrolidin-2-ylmethoxy]-acetamide], the inhibition at 1 µM at human μ opiate receptor is 93%. Moreover, the 5-HT reuptake in test [1] (Table 2, test concentration 10 μM) was 84 % inhibition.
`CN(C)C(c1cccc(F)c1)C1CCC(CCNC(=O)COC2CCN(S(=O)(=O)c3ccc(Cl)cc3Cl)C2)CC1` (stereo not shown) [Example 259]: at human μ opiate receptor, the “μ (binding on the μ opioid receptor, % inhibition)” value came out at 83%. For the same molecule, the “5-HT (inhibition of reuptake of serotonin, % inhibition)” value in test [1] was 90%.
For the molecule `COc1ccc(S(=O)(=O)N2CCCCC2CCOCC(=O)NC2CCC(C(c3ccc(F)cc3)N(C)C)CC2)cc1` (stereo not shown) [Example 212], the “μ (binding on the μ opioid receptor, % inhibition)” value at human μ opiate receptor came out at 80%. Further, the “5-HT (inhibition of reuptake of serotonin, % inhibition)” value in test [1] is 92%.
Regarding `CN(C)C(c1cccc(F)c1)C1CCC(NC(=O)COCC2CCCN2S(=O)(=O)c2ccc(Cl)c(Cl)c2)CC1` (stereo not shown) [Example 211], at human μ opiate receptor, the “μ (binding on the μ opioid receptor, % inhibition)” value was 83%. Further, the “5-HT (inhibition of reuptake of serotonin, % inhibition)” value in test [1] was 90%.
Take `CN(C)C(c1cccc(F)c1)C1CCC(NC(=O)COCCN(C)S(=O)(=O)c2c(Cl)cc(Cl)cc2Cl)CC1` (stereo not shown) [Example 208]: the “μ (binding on the μ opioid receptor, % inhibition)” value on human μ opiate receptor turned out to be 79%. Moreover, the “5-HT (inhibition of reuptake of serotonin, % inhibition)” value in test [1] is on record as 93%.
`CN(C)C(c1cccc(F)c1)C1CCC(NC(=O)COC2CCN(S(=O)(=O)c3ccc(Cl)cc3)C2)CC1` (stereo not shown) [Example 204]: the “μ (binding on the μ opioid receptor, % inhibition)” value at human μ opiate receptor is given as 81%. Moreover, the “5-HT (inhibition of reuptake of serotonin, % inhibition)” value in test [1] worked out at 86%.
`CN(C)C(c1ccc(Cl)cc1)C1CCC(CCNC(=O)COCCN(C)S(=O)(=O)c2ccc(F)cc2)CC1` (stereo not shown) [Example 241]: the “μ (binding on the μ opioid receptor, % inhibition)” value at human μ opiate receptor is 67%. Besides, the “5-HT (inhibition of reuptake of serotonin, % inhibition)” value in test [1] stood at 102%.
Turning to `CN(C)C(c1ccccc1)C1CCC(CNC(=O)COCC2CCCN(S(=O)(=O)c3ccccc3)C2)CC1` (stereo not shown) [Example 129, N((4((dimethylamino)(phenyl)methyl)cyclohexyl)methyl)-2-((1-(phenylsulfonyl)piperidin-3-yl)methoxy)acetamide], at human μ opiate receptor, the “μ (binding on the μ opioid receptor, % inhibition)” value was 89%. The “5-HT (inhibition of reuptake of serotonin, % inhibition)” value in test [1] was found to be 95%.
The matching figures for `COc1cc(C)c(S(=O)(=O)N2CCCC(OCC(=O)NCCC3CCC(C(c4cccc(F)c4)N(C)C)CC3)C2)c(C)c1C` (stereo not shown) [Example 221]: 82% and 95%.
Regarding `COc1ccc(S(=O)(=O)N(C)CCOCC(=O)NC2CCC(C(c3cccs3)N(C)C)CC2)cc1OC` (stereo not shown) [Example 206], the “μ (binding on the μ opioid receptor, % inhibition)” value at human μ opiate receptor turned out to be 78%. Also, the “5-HT (inhibition of reuptake of serotonin, % inhibition)” value in test [1] came out at 84%.
With `COc1ccc(S(=O)(=O)N2CCCCC2COCC(=O)NC2CCC(C(c3cccs3)N(C)C)CC2)cc1` (stereo not shown) [Example 243], on human μ opiate receptor, the “μ (binding on the μ opioid receptor, % inhibition)” value was 79%. For the same molecule, the “5-HT (inhibition of reuptake of serotonin, % inhibition)” value in test [1] stood at 73%.
The matching figures for `Cc1ccc(S(=O)(=O)N2CCC(OCC(=O)NCCC3CCC(C(c4cccs4)N(C)C)CC3)C2)cc1` (stereo not shown) [Example 272]: 73% and 88%.
In the case of `CN(C)C(c1ccccc1)C1CCC(CNC(=O)COC2CCN(S(=O)(=O)c3ccc(F)cc3)C2)CC1` (stereo not shown) [Example 219], on human μ opiate receptor, the “μ (binding on the μ opioid receptor, % inhibition)” value turned out to be 82%. Besides, the “5-HT (inhibition of reuptake of serotonin, % inhibition)” value in test [1] turned out to be 96%.
On to `COc1cc(C)c(S(=O)(=O)N(C)CCOCC(=O)NC2CCC(C(c3cccc(F)c3)N(C)C)CC2)c(C)c1` (stereo not shown) [Example 228], for which the “μ (binding on the μ opioid receptor, % inhibition)” value on human μ opiate receptor amounted to 76%. For the same molecule, the “5-HT (inhibition of reuptake of serotonin, % inhibition)” value in test [1] is 85%.
Consider `O=C(COCCN(C1CC1)S(=O)(=O)c1c(Cl)cc(Cl)cc1Cl)NC1CCC(C(c2ccccc2)N2CCCC2)CC1` (stereo not shown) [Example 603, 2-{2-[cyclopropyl-(2,4,6-trichlorobenzenesulfonyl)-amino]-ethoxy}-N-[4-(phenylpyrrolidin-1-ylmethyl)-cyclohexyl]-acetamide], for which the inhibition at 1 µM on human μ opiate receptor amounted to 45%. The inhibition at 10 µM in test [1] (Table 2, test concentration 10 μM, read-out: 5-HT reuptake) turned out to be 74%.
Take `COc1ccc(S(=O)(=O)N2CCCC2COCC(=O)NCCC2CCC(C(c3cccc(F)c3)N(C)C)CC2)cc1` (stereo not shown) [Example 224]: the “μ (binding on the μ opioid receptor, % inhibition)” value at human μ opiate receptor is 85%. For the same molecule, in test [1], the “5-HT (inhibition of reuptake of serotonin, % inhibition)” value is 97%.
Consider `CN(C)C(c1cccs1)C1CCC(CCNC(=O)COC2CCCCC2N(C)S(=O)(=O)c2ccc(Cl)c(Cl)c2)CC1` (stereo not shown) [Example 214], for which, at human μ opiate receptor, the “μ (binding on the μ opioid receptor, % inhibition)” value amounted to 85%. For the same molecule, the “5-HT (inhibition of reuptake of serotonin, % inhibition)” value in test [1] is reported as 83%.
Turning to `Cc1cc(C)c(S(=O)(=O)N(C)CCOCC(=O)NC2CCC(C(c3cccs3)N(C)C)CC2)c(C)c1` (stereo not shown) [Example 235], the “μ (binding on the μ opioid receptor, % inhibition)” value on human μ opiate receptor is recorded as 76%. In addition, the “5-HT (inhibition of reuptake of serotonin, % inhibition)” value in test [1] was 86%.

The values above are taken from patent US8106055B2, “Substituted amide compounds” (Gruenenthal GmbH, priority 2007, dated 2012).
